Source: patent publication US11786517B2, “Methods of treatment using a JAK inhibitor compound” (THERAVANCE BIOPHARMA R&D IP, LLC, priority 2017, dated 2023)

Columns and labels:
[1] = Ocular pharmacokinetics in rabbit eyes; type: in vivo, New Zealand white rabbits
Description: The objective of this assay was to determine the pharmacokinetics of the test compound in rabbit ocular tissues.
The compound of the invention, 5-ethyl-2-fluoro-4-(3-(5-(1-methylpiperidin-4-yl)-4,5,6,7-tetrahydro-1H-imidazo[4,5-c]pyridin-2-yl)-1H-indazol-6-yl)phenol (1) was dissolved in either 10% 2-hydroxypropyl-β-cyclodextrin to attain a target concentration of 4 mg/mL or in purified water to attain a target concentration of 1 mg/mL. Bilateral intravitreal injection (50 μL/eye) of the solution of test compound was administered to New Zealand white rabbits in two dose groups, 200 μg/eye and 50 μg/eye, respectively, for the cyclodextrin and water vehicle formulations, respectively. The test compound concentration was measured in ocular tissues: vitreous, aqueous, retina/choroid and iris-ciliary body at pre-determined time points post injection (30 min, 4 h, 1 d, 3 d, 7 d, 14 d). Two rabbits (four eyes) were dosed for each time point.
A suspension formulation was prepared by combining crystalline compound 1 of Example 1 with 0.5% hydroxypropyl methylcellulose (HPMC E5)+0.02% Tween 80 to attain a target concentration of 10 mg/mL. Bilateral intravitreal injection (50 μL/eye) of the suspension of test compound was administered to New Zealand white rabbits (500 μg/eye). The test compound concentration was measured in ocular tissues as in the […] at 30 min, 2 wks, 4 wks, 6 wks, and 8 wks post injection. […] The behavior is consistent with the solubility of compound 1 in the vehicle and the ocular pharmacokinetic behavior in the solution formulation. The drug concentration in plasma was measured and found to be at least 3 orders of magnitude lower than the concentration in vitreous tissue.

[2] = test system: IFNγ induced pSTAT1 in rabbit retina/choroid tissue; test: Pharmacodynamic assay: inhibition of IFNγ-induced pSTAT1 in rabbit eyes; type: in vivo, New Zealand White rabbits; details: 0.9 mg intravitreal suspension, 1 week pre-treatment
Description: The ability of a single intravitreal administration of test compound to inhibit interferon-gamma (IFNγ) induced phosphorylation of STAT1 protein (pSTAT1) was measured in rabbit retina/choroid tissue.
A suspension formulation was prepared by combining compound 1 of Example 1, with 0.5% hydroxypropyl methylcellulose (HPMC E5), 0.02% Tween 80, and 9 mg/mL sodium chloride in purified water to attain a target concentration of 20 mg/mL.
Male, New Zealand White rabbits (Liveon Biolabs, India) were used for the studies. Animals were acclimated after arrival at the research facilities (Jubilant Biosys Ltd., India). Each rabbit was given a total of two intravitreal (IVT) injections with a total dose volume of 50 μL per eye. The first IVT injection (45 μL per eye) delivered 0.9 mg of test compound or vehicle. One week later, a second IVT injection (5 μL per eye) delivered IFNγ (1 μg/eye; stock solution 1 mg/mL; Kingfisher Biotech) or vehicle for the induction of IP-10. […]
Tissues were collected 2 hours after the second IVT injection with IFNγ. Retina/choroid tissues (R/C) were collected and homogenized, and pSTAT1 levels were measured by quantitative Western Blot on the ProteinSimple WES instrument. The percent inhibition of IFNγ-induced pSTAT1 was calculated in comparison to the vehicle/vehicle and vehicle/IFNγ groups.

CCc1cc(O)c(F)cc1-c1ccc2c(-c3nc4c([nH]3)CCN(C3CCN(C)CC3)C4)n[nH]c2c1 [Example 1, Crystalline hydrate of 5-ethyl-2-fluoro-4-(3-(5-(1-methylpiperidin-4-yl)-4,5,6,7-tetrahydro-1H-imidazo[4,5-c]pyridin-2-yl)-1H-indazol-6-yl)phenol]
drug concentration in plasma lower than concentration in vitreous tissue ([1]; intravitreal injection, listed as compound 1 of Example 1): at least 3 orders of magnitude
clearance rate, linear decrease in drug concentration in the vitreous ([1]; intravitreal suspension 500 μg/eye, 30 min to 6 weeks): approximately 3 μg/mL/day
inhibition of IFNγ-induced pSTAT1 [2]: 85%
